Laboratory results taken from patent US12156922B2, “Copper-containing complex and uses thereof” (Bar-Ilan University, priority 2017, dated 2024).
“And” between values parts separate entries of the source, which are not always exact repeats. Equal values may be shown once. No end group written: not given here. *: point of attachment. MTSSL = S-(1-oxyl-2,2,5,5-tetramethyl-2,5-dihydro-1H-pyrrol-3-yl)methyl methanesulfonothioate spin label conjugate, CC1(C)C=C(CS*)C(C)(C)N1[O]

How the values were obtained:
[1] = UV-visible titration of ATSM-Cu(II) complex with Cu(II) chelators and peptides (311 nm / 465 nm); format: physicochemical; settings: for molar equivalents sufficient/needed to remove copper from the ATSM-Cu(II) complex: 30% DMSO in 0.1 M phosphate buffer (pH 7.4)
Description: (§1) The stability of the ATSM-Cu(II) complex was tested by using UV-visible spectrophotometry. […] In order to confirm the dissociation of ATSM-Cu(II) complex or the formation of copper complex with ligands or copper chelation by ligands, the effect of ligands on ATSM-Cu(II) was also tested using electron paramagnetic resonance (EPR) spectroscopy.
Stock solutions of CuCl2 (10 mM), 1,10-phenanthroline (10 mM), IDA (10 mM), and L-histidine (10 mM), NTA (5 mM) and Pep1 (5 mM) were prepared in ultrapure water (Milli-Q®). Stock solutions (1 mM) of HAGAH, HGGH and HTGMK peptides were prepared by dissolution in 0.1 M phosphate buffer (pH 7.4).
In order to facilitate the solubility of ATSM-Cu(II) complex, all the measurements were carried out in 30% DMSO in 0.1 M phosphate buffer (pH 7.4), at physiological conditions.

[2] = EPR of ATSM-Cu(II) complex after addition of ligands; format: physicochemical; settings: 0.1 mM ATSM-Cu(II), 4 molar equivalents of ligand; 30% DMSO, 0.1 M phosphate buffer (pH 7.4)
Description: as §1
The stability of ASTM-Cu(II) complex was further studied by EPR spectroscopy. 0.1 mM of ATSM-Cu(II) complex was prepared in 30% DMSO and 0.1 M phosphate buffer (pH 7.4).

[3] = Low temperature CW-EPR of Cu(II) binding to Ctr1 N-terminal peptides in KPi buffer; settings: for percentage of Cu(II) bound to peptide (species other than 4O coordination): 130 K
Description: Continuous wave electron […] (CW-EPR) spectra were recorded using an Elexsys™ E500 spectrometer (Bruker) operating at 9.0-9.5 GHz, equipped with a super-high-sensitivity CW resonator. The spectra were recorded at room temperature (RT; 295±2 K) or at low temperature (130±5 K) at a microwave power of 20.0 mW, modulation amplitude of 1.0 G, time constant of 60 or 80 milliseconds, and receiver gain of 60.0 dB. The samples were measured in 0.8 mm or 1.0 mm capillary quartz tubes (VitroCom) at RT. Solutions that were measured at low temperature were mixed with 20% glycerol, and measured in a 3.0 mm or 4.0 mm Wilmad® quartz tube.
Simulation of CW-EPR spectra was performed using MATLAB, with the EasySpin™ toolbox, according to procedures described by Stoll & Schweiger [J Magn Reson 2006, 178:42-55]. In fitting a spectrum to a simulation, emphasis is placed on small peaks of in the region of under 3000G.
The abovementioned peptides Pep1-Pep5 were investigated by CW-EPR measurements at low temperature (130 K), in the presence of different concentrations of Cu(II). The data were subsequently incorporated into simulations using the EasySpin™ tool box, and the first coordination sphere of Cu(II) was determined for each peptide, according to procedures described in Peisach & Blumberg [Arch Biochem Biophys 1974, 165:691-708]. The experimental data and comparisons with simulated data (including parameters derived from the simulations) for peptides Pep1-Pep5, at a variety of peptide:Cu(II) molar ratios, are presented in FIGS. 7-11. FIG. 12 presents the experimental data and comparisons with simulated data for peptides Pep1-Pep5 at a peptide:Cu(II) molar ratio of 1:1.
The simulation for each peptide took into account two Cu(II) species. The first species corresponds to free Cu(II) ions in water, where Cu(II) is coordinated to four oxygen atoms (4O coordination), with g∥=2.39±0.005, A∥=154±2.0 G. The second species corresponds to Cu(II) that is bound to the peptide with coordination of 3N1O or 2N2O.

[4] = Reduction of Cu(II) to Cu(I) by ascorbate in the presence of peptide, followed by room temperature EPR intensity; settings: 2 mM ascorbate, peptide:ascorbate:Cu(II) 1:2:2; for Cu(II) reduced: within 4000 seconds, room temperature
Description: For measuring Cu(II) reduction by EPR spectroscopy, 20 μl of aqueous CuCl2 solution (2 mM) was added to 20 μl of a solution of a tested peptide (1 mM). At time zero, 20 μl of ascorbic acid solution (2 mM) was added, and the solution was mixed under anaerobic conditions. Cu(II) EPR signal intensity (at the maximum EPR signal intensity (g⊥ position)) was measured as a function of time.
The effects of the mutations of the Pep2-Pep5 peptides on the reduction of Cu(II) to Cu(I) was then investigated, by evaluating the room temperature (RT) change in EPR intensity over time, as Cu(I) is EPR-silent. Reduction of Cu(II) was effected in the presence of 2 mM ascorbate (a peptide:ascorbate:Cu(II) molar ratio of 1:2:2). For comparison, the reduction of free Cu(II) in buffer was also measured.

[5] = UV-VIS titration of peptides with Cu(I), absorption at 265 nm; format: binding; settings: for absorption at 265 nm upon addition of Cu(I) (Cu(I) binding): 3-20 molar equivalents of Cu(I)
Description: UV-Visible-IR absorption spectra were obtained using a Cary® Bio 100 spectrophotometer, or using a Chirascan™ spectrometer (Applied Photophysics), at room temperature with a 1 mm optical path-length cell. Acetone was used as a reference. Typically, peptides were measured at a concentration of 0.3 mg/ml. Difference absorption spectra were obtained for peptides titrated with Cu(I) from 200 to 600 nm with a step size and a bandwidth of 0.5 nm.
Cu(I) was added to peptide solutions in the form of tetrakis(acetonitrile)copper(I) hexafluorophosphate under nitrogen gas in order to preserve anaerobic conditions. No Cu(II) signal was observed by EPR, thereby confirming the purity of the Cu(I).
In order to gain further insight into Cu(I) coordination, UV-VIS measurements were performed on the various peptides (as described n the Materials and Methods section hereinabove).

[6] = peptide:Cu(II) molar ratio 1:0.6
[7] = peptide:Cu(II) molar ratio 1:0.8
[8] = peptide:Cu(II) molar ratio 1:1.4
[9] = peptide:Cu(II) molar ratio 1:0.4

With `c1cnc2c(c1)ccc1cccnc12` [1,10-phenanthroline] the “molar equivalents sufficient/needed to remove copper from the ATSM-Cu(II) complex” value (“molar equivalents sufficient/needed” for short) [1] was “two molar equivalents” and the “effect on electron paramagnetic spectrum of ATSM-Cu(II) complex” value (from here on “effect on electron paramagnetic spectrum”) [2] was “induced significant changes”.
For `CN=C([S-])N/N=C(C)/C(C)=N/NC([S-])=NC.[Cu+2]` [ATSM-Cu(II), Cu(II)-diacetyl-bis(N4-methylthiosemicarbazone)], the “stability of ATSM-Cu(II) complex in the presence of Cu(II) ligands” value ([1]; overall conclusion from UV-visible and EPR) was “may be unstable in a cellular environment”.
In the case of `O=C(O)CNCC(=O)O` [IDA, Imino-diacetic acid], the “molar equivalents sufficient/needed” value [1] is reported as “at least four molar equivalents” and the “effect on electron paramagnetic spectrum” value [2] is reported as “induced significant changes”.
For `N[C@@H](Cc1c[nH]cn1)C(=O)O` [L-His, L-histidine], the “molar equivalents sufficient/needed” value [1] was “at least four molar equivalents” and the “effect on electron paramagnetic spectrum” value [2] was “induced significant changes”.
With `O=C(O)CN(CC(=O)O)CC(=O)O` [NTA, nitrilotriacetic acid] the “molar equivalents sufficient/needed” value [1] was “at least four molar equivalents” and the “effect on electron paramagnetic spectrum” value [2] was “induced significant changes”.
In the case of HTGMK, the “molar equivalents sufficient/needed” value [1] is reported as “one molar equivalent”.
In the case of “MDASHHMGMSYMDS (Pep3 peptide amino acid sequence)”, the “percentage of Cu(II) bound to peptide (species other than 4O coordination)” value (shortened to “percentage of Cu(II) bound to peptide”) [3, 6] is reported as 70%, the “percentage of Cu(II) bound to peptide” value [3, 7] is reported as 70% and the “percentage of Cu(II) bound to peptide” value [3, 8] is reported as 63%. The “percentage of Cu(II) bound to peptide” value ([3]; peptide:Cu(II) molar ratio 1:2) was 55%, the “percentage of Cu(II) bound to peptide” value ([3]; peptide:Cu(II) molar ratio 1:3) was 55% and the “Cu(II) reduced” value [4] was “about 5%”. The “Cu(I):peptide molar ratio at which binding occurred” value ([5]; titration with Cu(I)) was “exceeding 5.0”.
With “MDHSAHMGMSYMDS (Pep4 peptide amino acid sequence)” the “percentage of Cu(II) bound to peptide” value [3, 9] was 70%, the “percentage of Cu(II) bound to peptide” value [3, 6] was 80% and the “percentage of Cu(II) bound to peptide” value [3, 7] was 85%. The “percentage of Cu(II) bound to peptide” value ([3]; peptide:Cu(II) molar ratio 1:1) was 90%, the “percentage of Cu(II) bound to peptide” value [3, 8] was 92% and the “percentage of Cu(II) bound to peptide” value ([3]; peptide:Cu(II) molar ratio 1:2) was 94%. The “percentage of Cu(II) bound to peptide” value ([3]; peptide:Cu(II) molar ratio 1:3) was 97% and 100%, the “reduction of Cu(II) compared with free Cu(II) ions” value [4] was “more rapid than reduction of free Cu(II) ions” and the “reduction of Cu(II) compared with wild-type peptide” value [4] was “more rapid than in the presence of Pep1”.
For “MDHSHAMGMSYMDS (Pep5 peptide amino acid sequence)”, the “percentage of Cu(II) bound to peptide” value [3, 9] was 75%, the “percentage of Cu(II) bound to peptide” value [3, 6] was 75% and the “percentage of Cu(II) bound to peptide” value [3, 7] was 75%. The “percentage of Cu(II) bound to peptide” value [3, 8] was 40%, the “percentage of Cu(II) bound to peptide” value ([3]; peptide:Cu(II) molar ratio 1:2) was 40% and the “percentage of Cu(II) bound to peptide” value ([3]; peptide:Cu(II) molar ratio 1:3) was 30%. For the same compound, the “reduction of Cu(II) compared with wild-type peptide” value [4] was “more rapid than in the presence of Pep1”.
In the case of “MDHSHHMAMSYMDS (Pep2 peptide amino acid sequence)”, the “percentage of Cu(II) bound to peptide” value [3, 9] is reported as 60%, the “percentage of Cu(II) bound to peptide” value [3, 6] is reported as 80% and the “percentage of Cu(II) bound to peptide” value [3, 7] is reported as 85% and 80%. The “percentage of Cu(II) bound to peptide” value ([3]; peptide:Cu(II) molar ratio 1:1) was 70%, the “percentage of Cu(II) bound to peptide” value [3, 8] was 60% and the “percentage of Cu(II) bound to peptide” value ([3]; peptide:Cu(II) molar ratio 1:2) was 62%. The “percentage of Cu(II) bound to peptide” value ([3]; peptide:Cu(II) molar ratio 1:3) was 58% and the “Cu(II) reduced” value [4] was “about 5%”.
In the case of “MDHSHHMGMSYMDS (Pep1 peptide amino acid sequence)”, the “Cu(II) bound to peptide” value ([3]; low Cu(II) concentrations) is reported as “substantially all Cu(II) is bound”, the “percentage of Cu(II) bound to peptide” value ([3]; peptide:Cu(II) molar ratio 1:1) is reported as 80% and the “percentage of Cu(II) bound to peptide” value [3, 8] is reported as 70%. The “percentage of Cu(II) bound to peptide” value ([3]; peptide:Cu(II) molar ratio 1:2) was 70%, the “percentage of Cu(II) bound to peptide” value ([3]; peptide:Cu(II) molar ratio 1:3) was 70% and the “Cu(II) reduced” value [4] was “about 5%”.
In the case of “MTSSL-CMDHSHHAGMSYMDSC-MTSSL (C(MTSSL)MDHSHHAGMSYMDSC(MTSSL)-NH2; N-terminus assumed; SMILES CSCC[C@H](NC(=O)CNC(=O)[C@H](C)NC(=O)[C@H](Cc1c[nH]cn1)NC(=O)[C@H](Cc1c[nH]cn1)NC(=O)[C@H](CO)NC(=O)[C@H](Cc1c[nH]cn1)NC(=O)[C@H](CC(=O)O)NC(=O)[C@H](CCSC)NC(=O)[C@@H](N)CSSCC1=CC(C)(C)N([O])C1(C)C)C(=O)N[C@@H](CO)C(=O)N[C@@H](Cc1ccc(O)cc1)C(=O)N[C@@H](CCSC)C(=O)N[C@@H](CC(=O)O)C(=O)N[C@@H](CO)C(=O)N[C@@H](CSSCC1=CC(C)(C)N([O])C1(C)C)C(N)=O) [Pep8]”, the “absorption at 265 nm upon addition of Cu(I) (Cu(I) binding)” value (“absorption at 265 nm upon addition” for short) [5] is reported as “did not change upon addition of Cu(I)”.
With “MTSSL-CMDHSHHMGASYMDSC-MTSSL (C(MTSSL)MDHSHHMGASYMDSC(MTSSL)-NH2; N-terminus assumed; SMILES CSCC[C@H](NC(=O)[C@H](Cc1c[nH]cn1)NC(=O)[C@H](Cc1c[nH]cn1)NC(=O)[C@H](CO)NC(=O)[C@H](Cc1c[nH]cn1)NC(=O)[C@H](CC(=O)O)NC(=O)[C@H](CCSC)NC(=O)[C@@H](N)CSSCC1=CC(C)(C)N([O])C1(C)C)C(=O)NCC(=O)N[C@@H](C)C(=O)N[C@@H](CO)C(=O)N[C@@H](Cc1ccc(O)cc1)C(=O)N[C@@H](CCSC)C(=O)N[C@@H](CC(=O)O)C(=O)N[C@@H](CO)C(=O)N[C@@H](CSSCC1=CC(C)(C)N([O])C1(C)C)C(N)=O) [Pep9]” the “absorption at 265 nm upon addition” value [5] was “did not change upon addition of Cu(I)”.
With “MTSSL-CMDHSHHMGMSYADSC-MTSSL (C(MTSSL)MDHSHHMGMSYADSC(MTSSL)-NH2; N-terminus assumed; SMILES CSCC[C@H](NC(=O)CNC(=O)[C@H](CCSC)NC(=O)[C@H](Cc1c[nH]cn1)NC(=O)[C@H](Cc1c[nH]cn1)NC(=O)[C@H](CO)NC(=O)[C@H](Cc1c[nH]cn1)NC(=O)[C@H](CC(=O)O)NC(=O)[C@H](CCSC)NC(=O)[C@@H](N)CSSCC1=CC(C)(C)N([O])C1(C)C)C(=O)N[C@@H](CO)C(=O)N[C@@H](Cc1ccc(O)cc1)C(=O)N[C@@H](C)C(=O)N[C@@H](CC(=O)O)C(=O)N[C@@H](CO)C(=O)N[C@@H](CSSCC1=CC(C)(C)N([O])C1(C)C)C(N)=O) [Pep10]” the “absorption at 265 nm upon addition” value [5] was “did not change upon addition of Cu(I)”.
